Source: BindingDB's records for patent US12415785 (Ctxt, 2025)

Molecular target: T1, Stimulator of interferon genes protein [1-379,R71H,G230A,H232R,R293Q] (Homo sapiens, UniProt Q86WV6, G230A/H232R/R293Q/R71H)
T1 construct: 1-379
Assay: Surface Plasmon Resonance (SPR)
Method: Briefly, approximately 20 nmol of recombinant STING protein in 1×TBS buffer (25 mM Tris-HCl, pH 7.5, 150 mM NaCl, 5 mM DTT) was mixed with of EZ-Link™ Sulfo-NHS-LC-LC-Biotin (Thermofisher Scientific, cat #21338) at a molar ratio of 1 to 0.6 and incubated on ice for 2 hours. To remove any unreacted biotin reagent, protein/biotin mixture was passed through a Superdex 75 (10/300 GL) column equilibrated with 10 mM HEPES, pH7.4, 150 mM NaCl, 5 mM DTT, 5%[v/v] glycerol. A protein peak containing biotinylated huSTING protein was collected and stored in aliquots at −80° C.Streptavidin was simultaneously immobilized in all four channels of a CM5 sensor chip docked in a Biacore instrument (either Biacore S200 or Biacore T200, GE Healthcare) as described previously (Zender 2013). Minimally biotinylated STING protein was captured onto a streptavidin coated chip surface at 8° C. in SPR binding buffer (50 mM HEPES, pH 7.4, 150 mM NaCl, 2%[v/v] DMSO) by gradually injecting in a single channel at a constant flow-rate of 2 μL/min until desired capture level was achieved, typically 3000 to 7000 RU (1 RU=1 pg/mm2).All binding experiments were performed at 8° C. in SPR binding buffer. To determine binding affinity, compound interaction with immobilized STING protein was analysed using dose-response experiments. Fresh 10 mM DMSO solutions of compound were diluted directly into SPR binding buffer typically to a concentration of 50 μM and then further diluted 2-fold or 3-fold aiming for either a 5- or 7-point concentration series range. Each ligand concentration series was injected at a constant flow rate of 60 μL/min with a 90 second association and a 180 second dissociation time.

T1 sequence (Q86WV6 whole entry R71H/G230A/H232R/R293Q, looked up): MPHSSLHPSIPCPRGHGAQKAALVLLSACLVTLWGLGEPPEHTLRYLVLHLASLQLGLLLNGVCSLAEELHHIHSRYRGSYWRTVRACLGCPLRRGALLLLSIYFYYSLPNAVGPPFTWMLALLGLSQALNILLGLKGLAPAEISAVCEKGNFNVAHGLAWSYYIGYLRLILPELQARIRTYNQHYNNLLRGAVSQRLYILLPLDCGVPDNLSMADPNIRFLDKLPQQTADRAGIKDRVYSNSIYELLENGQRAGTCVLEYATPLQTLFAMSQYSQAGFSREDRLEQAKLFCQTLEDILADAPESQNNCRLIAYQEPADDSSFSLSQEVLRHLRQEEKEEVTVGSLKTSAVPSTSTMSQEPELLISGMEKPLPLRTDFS

| Compound | Kd [µM] |
| --- | --- |
| NC(=O)c1ccc2c(c1)nc(-c1ccccc1C(=O)O)n2CCn1c(-c2ccccc2C(=O)O)nc2cc(C(N)=O)ccc21 [US12415785, Example 2] | 67 |
| COc1c(C(N)=O)ccc2c1nc(-c1cccc(Cl)c1-c1nn[nH]n1)n2CCn1c(-c2cccc(Cl)c2-c2nn[nH]n2)nc2c(OC)c(C(N)=O)ccc21 [US12415785, Example 40] | 64 |
| COc1c(C(N)=O)ccc2c1nc(-c1ccc(Cl)cc1C(=O)O)n2CCCn1c(-c2ccc(Cl)cc2C(=O)O)nc2c(OC)c(C(N)=O)ccc21 [US12415785, Example 35] | 35 |
| COc1c(C(N)=O)ccc2c1nc(-c1cnccc1C(=O)O)n2CCn1c(-c2cnccc2C(=O)O)nc2c(OC)c(C(N)=O)ccc21 [US12415785, Example 30] | 90 |
| CCc1ccc(-c2nc3c(OC)c(C(N)=O)ccc3n2CCn2c(-c3ccc(CC)cc3C(=O)O)nc3c(OC)c(C(N)=O)ccc32)c(C(=O)O)c1 [US12415785, Example 33] | 78 |
| NC(=O)c1ccc2c(c1)nc(-c1ccc(Cl)cc1C(=O)O)n2CCn1c(-c2ccc(Cl)cc2C(=O)O)nc2cc(C(N)=O)ccc21 [US12415785, Example 39] | 300 |
| COc1c(C(N)=O)ccc2c1nc(-c1ncc(Cl)cc1C(=O)O)n2CCn1c(-c2ncc(Cl)cc2C(=O)O)nc2c(OC)c(C(N)=O)ccc21 [US12415785, Example 31] | 55 |
| COc1c(C(N)=O)ccc2c1nc(-c1ccc(Cl)cc1C(=O)O)n2CCn1c(-c2ccc(Cl)cc2C(=O)O)nc2c(OC)c(C(N)=O)ccc21 [US12415785, Example 1] | 16.6 |
| NC(=O)c1ccc2c(c1)nc(-c1ccccc1-c1nn[nH]n1)n2CCn1c(-c2ccccc2-c2nnn[nH]2)nc2cc(C(N)=O)ccc21 [US12415785, Example 5] | 19.3 |
| COc1c(C(N)=O)ccc2c1nc(-c1ccc(C)cc1C(=O)O)n2CCn1c(-c2ccc(C)cc2C(=O)O)nc2c(OC)c(C(N)=O)ccc21 [US12415785, Example 25] | 19.3 |
| COc1c(C(N)=O)ccc2c1nc(-c1cc(C)ccc1C(=O)O)n2CCn1c(-c2cc(C)ccc2C(=O)O)nc2c(OC)c(C(N)=O)ccc21 [US12415785, Example 26] | 32.5 |
| COc1ccc(-c2nc3c(OC)c(C(N)=O)ccc3n2CCn2c(-c3ccc(OC)cc3C(=O)O)nc3c(OC)c(C(N)=O)ccc32)c(C(=O)O)c1 [US12415785, Example 41] | 83 |
| COc1c(C(N)=O)ccc2c1nc(-c1ccc(Cl)cc1C(=O)O)n2C/C=C/Cn1c(-c2ccc(Cl)cc2C(=O)O)nc2c(OC)c(C(N)=O)ccc21 [US12415785, Example 34] | 26 |
| COc1c(C(N)=O)ccc2c1nc(-c1ccc(Cl)cc1-c1cn[nH]n1)n2CCn1c(-c2ccc(Cl)cc2-c2cn[nH]n2)nc2c(OC)c(C(N)=O)ccc21 [US12415785, Example 24] | 22 |
| COc1c(C(N)=O)ccc2c1nc(-c1cc(Cl)ccc1-c1nn[nH]n1)n2CCn1c(-c2cc(Cl)ccc2-c2nn[nH]n2)nc2c(OC)c(C(N)=O)ccc21 [US12415785, Example 42] | 14.8 |
| COc1c(C(N)=O)ccc2c1nc(-c1cc(F)c(F)cc1C(=O)O)n2CCn1c(-c2cc(F)c(F)cc2C(=O)O)nc2c(OC)c(C(N)=O)ccc21 [US12415785, Example 15] | 6.34 |

More lines, in order of falling Kd, values ahead:

| Kd [µM] | Compound |
| --- | --- |
| 12.8 | COc1c(C(N)=O)cc(F)c2c1nc(-c1ccc(Cl)cc1C(=O)O)n2CCn1c(-c2ccc(Cl)cc2C(=O)O)nc2c(OC)c(C(N)=O)cc(F)c21 [US12415785, Example 20] |
| 11.9 | COc1c(C(N)=O)ccc2c1nc(-c1ccccc1-c1nn[nH]n1)n2CCn1c(-c2ccccc2-c2nn[nH]n2)nc2c(OC)c(C(N)=O)ccc21 [US12415785, Example 6] |
| 2.66 | COc1c(C(N)=O)ccc2c1nc(-c1ccc(Cl)cc1-c1nn[nH]n1)n2CCn1c(-c2ccc(Cl)cc2-c2nn[nH]n2)nc2c(OC)c(C(N)=O)ccc21 [US12415785, Example 9] |
| 1.09 | COC(=O)c1c(Br)cccc1-c1nc2c(OC)c(C(N)=O)ccc2n1CCn1c(-c2cccc(Br)c2C(=O)OC)nc2c(OC)c(C(N)=O)ccc21 [US12415785, Example 21] |
| 0.936 | NC(=O)c1ccc2c(c1)nc(-c1c(Br)cccc1C(=O)O)n2CCn1c(-c2c(Br)cccc2C(=O)O)nc2cc(C(N)=O)ccc21 [US12415785, Example 29.1] |
| 0.423 | COc1c(C(N)=O)ccc2c1nc(-c1c(F)cc(F)cc1-c1n[nH]c(=O)o1)n2CCn1c(-c2c(F)cc(F)cc2-c2n[nH]c(=O)o2)nc2c(OC)c(C(N)=O)ccc21 [US12415785, Example 44] |
| 0.416 | COc1c(C(N)=O)ccc2c1nc(-c1ccc(Cl)cc1-c1n[nH]c(=O)o1)n2CCn1c(-c2ccc(Cl)cc2-c2n[nH]c(=O)o2)nc2c(OC)c(C(N)=O)ccc21 [US12415785, Example 17] |
| 0.183 | COc1c(C(N)=O)ccc2c1nc(-c1c(F)cccc1C(=O)O)n2CCn1c(-c2c(F)cccc2C(=O)O)nc2c(OC)c(C(N)=O)ccc21 [US12415785, Example 10] |
| 0.166 | COc1c(C(N)=O)ccc2c1nc(-c1c(F)cc(F)cc1C(=O)O)n2CCn1c(-c2c(F)cc(F)cc2C(=O)O)nc2c(OC)c(C(N)=O)ccc21 [US12415785, Example 16] |
| 0.144 | COc1c(C(N)=O)cc(F)c2c1nc(-c1c(F)cc(F)cc1C(=O)O)n2CCn1c(-c2c(F)cc(F)cc2C(=O)O)nc2c(OC)c(C(N)=O)cc(F)c21 [US12415785, Example 18] |
| 0.096 | COc1c(C(N)=O)ccc2c1nc(-c1c(F)cc(F)cc1-c1nn[nH]n1)n2CCn1c(-c2c(F)cc(F)cc2-c2nn[nH]n2)nc2c(OC)c(C(N)=O)ccc21 [US12415785, Example 43] |
| 0.078 | COc1c(C(N)=O)ccc2c1nc(-c1c(F)cc(Cl)cc1C(=O)O)n2CCn1c(-c2c(F)cc(Cl)cc2C(=O)O)nc2c(OC)c(C(N)=O)ccc21 [US12415785, Example 11] |
| 0.031 | COc1c(C(N)=O)ccc2c1nc(-c1c(F)cccc1-c1n[nH]c(=O)o1)n2CCn1c(-c2c(F)cccc2-c2n[nH]c(=O)o2)nc2c(OC)c(C(N)=O)ccc21 [US12415785, Example 49] |
| 0.03 | COc1c(C(N)=O)ccc2c1nc(-c1c(F)cccc1-c1nn[nH]n1)n2CCn1c(-c2c(F)cccc2-c2nn[nH]n2)nc2c(OC)c(C(N)=O)ccc21 [US12415785, Example 48] |
| 0.025 | COc1c(C(N)=O)ccc2c1nc(-c1c(F)cc(Cl)cc1-c1nn[nH]n1)n2CCn1c(-c2c(F)cc(Cl)cc2-c2nn[nH]n2)nc2c(OC)c(C(N)=O)ccc21 [US12415785, Example 46] |
| 0.014 | COc1c(C(N)=O)ccc2c1nc(-c1c(F)cc(Cl)cc1-c1n[nH]c(=O)o1)n2CCn1c(-c2c(F)cc(Cl)cc2-c2n[nH]c(=O)o2)nc2c(OC)c(C(N)=O)ccc21 [US12415785, Example 50] |
| 0.002 | COc1c(C(N)=O)ccc2c1nc(-c1c(I)cccc1C(=O)O)n2CCn1c(-c2c(I)cccc2C(=O)O)nc2c(OC)c(C(N)=O)ccc21 [US12415785, Example 19.1] |
| 0.002 | COc1c(C(N)=O)ccc2c1nc(-c1c(Cl)cccc1C(=O)O)n2CCn1c(-c2c(Cl)cccc2C(=O)O)nc2c(OC)c(C(N)=O)ccc21 [US12415785, Example 22] |
| 0.002 | COc1c(C(N)=O)ccc2c1nc(-c1c(Cl)cccc1-c1nn[nH]n1)n2CCn1c(-c2c(Cl)cccc2-c2nn[nH]n2)nc2c(OC)c(C(N)=O)ccc21 [US12415785, Example 23] |
